In publication PMC5458644 (Neoplasia (New York, N.Y.), 2017):

Assays:
MCA205 tumor cells = assay: Experimental lung metastasis model, MCA205 cells i.v.; assay type: in vivo, C57Bl/6 mice; conditions: 30 mg/kg/day oral gavage, daily for 7 days, vs vehicle, P < .05
[1] = Secondary pharmacology panel; conditions: 10 μM initial screen; apart from adenosine receptors; data not shown
[2] = tested on: human tumor-infiltrating lymphocytes (TILs); assay: Ex vivo assay of disaggregated resected NSCLC tumors, γ-interferon ELISA; assay type: cell-based; conditions: tumors of Figure 5 A and B; 3 days culture
B16-CD73+ tumor cells = assay: Experimental lung metastasis model, B16-CD73+ cells i.v.; assay type: in vivo, C57Bl/6 mice; conditions: 15 mg/kg/day oral gavage, daily for 15 days, vs vehicle, P < .05
A2aR = conditions: alone or in combination with anti-PD-1 and anti-CTLA4; cited from earlier work

Compound	tumor burden (lung nodules, lung weight) (MCA205 tumor cells)	effect in secondary pharmacology profile [1]	TIL function (γ-interferon), combination of PBF-509 with anti-PD-L1 [2]	tumor burden (lung nodules, lung weight) (B16-CD73+ tumor cells)	tumor burden in vivo (A2aR)
Nc1nc(-n2cccn2)nc(-n2cccn2)c1Br [PBF-509]	significantly reduced tumor burden	did not show any relevant effect	improved TIL function in an additive fashion	significantly reduced tumor burden	–
Nc1nc2c(cnn2CCc2ccccc2)c2nc(-c3ccco3)nn12 [SCH58261]	–	–	–	–	decreased tumor burden
Nc1nc(NCCc2ccc(O)cc2)nc2nc(-c3ccco3)nn12 [ZM241385]	–	–	–	–	decreased tumor burden
